Where no end group is shown, it is not given here. [ ]: non-standard residue; d: D form. Phe(4-Cl) = N[C@@H](Cc1ccc(Cl)cc1)C(=O)O
Tests used:
[1] = target: 20S CP (Homo sapiens, UniProt P20618+P28074); assay: Fluorescence hydrolysis of probes by purified 20S CP (plate reader); format: biochemical; conditions: 30 μM probe
Method: The peptide recognition sequence used was based on the commercially available 4-mer AMC probe (FIG. 1A), specifically Leu-Leu-Val-Tyr (SEQ ID NO: 1), to generate TAS1 (FIG. 1B). To determine if TAS1 had any enhanced sensitivity, the two probes were compared under the same conditions with purified 20S CP. Briefly, the probes were incubated in triplicate at 10 and 30 μM with 9 nM […] at 37° C. The change in fluorescence was monitored for two hours and the endpoint values were averaged and graphed for comparison (FIG. 1C). Because the two fluorophores have different excitation and emission wavelengths, the two experiments were performed separately but using the same conditions for the plate reader (i.e. gain, number of flashes, settling time, etc.). […] Since, unlike Suc-LLVY-AMC (SEQ ID NO: 1), TAS1 has the potential to have more than one cleavage site which could result in an increase in fluorescence (on either side of Rh110), we confirmed that the increase in signal is only from the recognition and cleavage of the peptide at the Tyr moiety by analyzing the 30 μM TAS1 samples by LC/MS (FIG. 2).
With these new peptide sequences in hand, we returned to incorporating the Rh110-peptoid moiety and to compare the cleavage of TAS1-3 with the 20S CP. We incubated all three probes at various concentrations with 9 nM 20S CP and monitored the change in fluorescence using a microplate reader. […] In order to compare the three probes, we fit a linear regression for the points from 10-60 min for 30 μM of each probe to obtain a rate for the change in fluorescence (Table 1). Of the three, TAS1 was hydrolyzed the quickest, although the slope for TAS2 was similar. […] To confirm that the change in fluorescence was due to amide bond cleavage at the expected site on the peptide, we analyzed the samples at a concentration of 30 μM by LC/MS (FIG. 3).

[2] = tested on: A549 cells; assay: Probe cleavage in live A549 cells with or without MG-132 pretreatment; format: cell-based; conditions: 10 μM probe, 5,000 cells/well, 90 min
Method: We next sought to determine if the TAS probes would be suitable for cell-based assays. To accomplish this, A549 cells were plated at a density of 5,000 cells/well in a black 96 well plate with a black bottom. After allowing the cells to adhere to the plate, the samples were washed with PBS three times then dosed with 10 μM of each probe in modified KRBH buffer. The change in fluorescence was recorded on a microplate reader for 90 min. After allowing the signal to equilibrate for […], each sample was set to zero and the future time points were scaled accordingly. As was done with the biochemical data, a linear regression was fit to each set of data. From the slope, it is observed that the rate for TAS2 was the highest. To determine the in-cell selectivity, a set of samples pretreated with MG-132 (10 μM), a proteasome inhibitor, was included for each probe. These samples were pre-incubated with MG-132 in cell culture media for one hour before washing with PBS and dosing with each probe in modified KRBH buffer. […] To ensure this decrease was not a consequence of cell death, cells were treated in the same way and analyzed using Cell-Titer Glo.

[3] = tested on: A498; assay: TAS2 rate of hydrolysis in live cells; format: cell-based; conditions: A498, TAS2 10 μM, 5,000 cells/well
Method: (§1) To compare these cells lines, each was plated at the same density of 5,000 cells/well in a black 96 well plate—for adherent cells lines A498, SK-MEL-2, MEL-92.1, SH-SY5Y and HEK293T, the cells were allowed to adhere overnight before using in the assay; MM.1R cells were plated and used directly after. Samples were incubated with either DMSO or TAS2 (10 μM) for 15 min, washed with PBS three times before putting the plate in a microplate reader to record the fluorescence intensity over 90 min. The experiment was performed in technical triplicate and experimental duplicate for each cell line and the rate of hydrolysis of TAS-2 was determined, Table 2.

[4] = tested on: HEK-293T; assay: TAS2 rate of hydrolysis in live cells; format: cell-based; conditions: TAS2 10 μM, 5,000 cells/well
Method: as §1

[5] = tested on: MEL-92.1; assay: TAS2 rate of hydrolysis in live cells; format: cell-based; conditions: MEL-92.1, TAS2 10 μM, 5,000 cells/well
Method: as §1

[6] = tested on: MM.1R; assay: TAS2 rate of hydrolysis in live cells; format: cell-based; conditions: TAS2 10 μM, 5,000 cells/well
Method: as §1

[7] = tested on: SH-SY5Y; assay: TAS2 rate of hydrolysis in live cells; format: cell-based; conditions: TAS2 10 μM, 5,000 cells/well
Method: as §1

[8] = tested on: SK-MEL-2; assay: TAS2 rate of hydrolysis in live cells; format: cell-based; conditions: SK-MEL-2, TAS2 10 μM, 5,000 cells/well
Method: as §1

TAS2: Rh110-based peptide/peptoid hybrid probe with Phe(4-Cl) as Tyr substitute (LLV[Phe(4-Cl)]; also: Rh110-based probe, place not given here, peptide/peptoid hybrid)
Rate of Hydrolysis ([1]; 9 nM purified 20S CP, linear regression 10-60 min): 63.8 ΔRFU/min
Cleavage products after incubation with 20S CP (LC/MS) ([1]; LC/MS): only produced the expected cleavage products
Rate of probe cleavage in A549 cells (slope) [2]: highest
Rate of Hydrolysis [3]: 39.6 ± 4.8 ΔRFU/min
Rate of Hydrolysis [4]: 6.7 ± 3.2 ΔRFU/min
Rate of Hydrolysis [5]: 16.4 ± 2.6 ΔRFU/min
Rate of Hydrolysis [6]: 81.6 ± 25.5 ΔRFU/min
Rate of Hydrolysis [7]: 5.8 ± 0.4 ΔRFU/min
Rate of Hydrolysis [8]: 12.1 ± 1.3 ΔRFU/min

From US12618847B2 (Purdue Research Foundation, priority 2020, dated 2026)
